# The supplement of paper PMC4862054
# Tests used:
# Conditions in all cases: incubation time: 72 h
# BT-474 [1] = experiment: normalised response (% of control), CellTox Green; higher = less cell death (100 = DMSO, 0 = benzethonium chloride kill control)
# In short: (§1)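 Compound was dispensed into 384-well plates at 5 concentrations in 10-fold steps spanning a 10,000-fold range specific to that compound. Breast cancer cell lines were added as 20 µl suspension and left for 72 h before CellTox Green fluorescence (485/520 nm) and then CellTiter-Glo luminescence, read after 10 min at room temperature. Each reported value is the normalised signal at one concentration, with 0.1 % DMSO set at 100 and a positive kill control at 0 on each plate.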
# BT-549 [2] = experiment: as above
# In short: as §1
# CAL-120 [3] = experiment: as above
# In short: as §1
# CAL-148 [4] = experiment: as above
# In short: as §1
# CAL-51 [5] = experiment: as above
# In short: as §1
# CAL-85-1 [6] = experiment: as above
# In short: as §1
# DU-4475 [7] = experiment: as above
# In short: as §1
# HCC1143 [8] = experiment: as above
# In short: as §1
# HCC1599 [9] = experiment: as above
# In short: as §1
# HDQ-P1 [10] = experiment: as above
# In short: as §1
# Hs578T [11] = experiment: as above
# In short: as §1
# MCF-10A [12] = experiment: as above
# In short: as §1
# MDA-MB-231 [13] = experiment: as above
# In short: as §1
# MDA-MB-436 [14] = experiment: as above
# In short: as §1
# MDA-MB-453 [15] = experiment: as above
# In short: as §1
# MDA-MB-468 [16] = experiment: as above
# In short: as §1
# MFM-223 [17] = experiment: as above
# In short: as §1
# BT-474 [18] = experiment: normalised response (% of control), CellTiter-Glo; higher = more viable cells (100 = DMSO, 0 = benzethonium chloride kill control)
# Experimental: (§2)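 DSRT, 72 h incubation, CellTox Green / CellTiter-Glo readout. Signal is normalised to DMSO and benzethonium chloride controls. Value is the normalised response at the highest dose.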
# BT-549 [19] = experiment: as above
# Experimental: as §2
# CAL-120 [20] = experiment: as above
# Experimental: as §2
# CAL-148 [21] = experiment: as above
# Experimental: as §2
# CAL-51 [22] = experiment: as above
# Experimental: as §2
# CAL-85-1 [23] = experiment: as above
# Experimental: as §2
# DU-4475 [24] = experiment: as above
# Experimental: as §2
# HCC1143 [25] = experiment: as above
# Experimental: as §2
# HCC1599 [26] = experiment: as above
# Experimental: as §2
# HCC1937 [27] = experiment: as above
# Experimental: as §2
# HDQ-P1 [28] = experiment: as above
# Experimental: as §2
# Hs578T [29] = experiment: as above
# Experimental: as §2
# MCF-10A [30] = experiment: as above
# Experimental: as §2
# MDA-MB-231 [31] = experiment: as above
# Experimental: as §2
# MDA-MB-436 [32] = experiment: as above
# Experimental: as §2
# MDA-MB-453 [33] = experiment: as above
# Experimental: as §2
# MDA-MB-468 [34] = experiment: as above
# Experimental: as §2
# MFM-223 [35] = experiment: as above
# Experimental: as §2
# SK-BR-3 = experiment: as above
# Experimental: as §2
# HCC1937 [36] = experiment: normalised response (% of control), CellTox Green; higher = less cell death (100 = DMSO, 0 = benzethonium chloride kill control)
# In short: as §1
structure (smiles),measurement,setting,value
Cc1ccc(NC(=O)c2ccc(CN3CCN(C)CC3)cc2)cc1Nc1nccc(-c2cccnc2)n1 [Imatinib] (10000 nM),normalised response,BT-474 [1],96.6%
same,normalised response,BT-549 [2],92.7%
same,normalised response,CAL-120 [3],101%
same,normalised response,CAL-148 [4],103%
same,normalised response,CAL-51 [5],93.1%
same,normalised response,CAL-85-1 [6],84.2%
same,normalised response,DU-4475 [7],97.9%
same,normalised response,HCC1143 [8],91.2%
same,normalised response,HCC1599 [9],94.8%
same,normalised response,HDQ-P1 [10],74.4%
same,normalised response,Hs578T [11],76.1%
same,normalised response,MCF-10A [12],65.1%
same,normalised response,MDA-MB-231 [13],114%
same,normalised response,MDA-MB-436 [14],87.4%
same,normalised response,MDA-MB-453 [15],-13.7%
same,normalised response,MDA-MB-468 [16],113%
same,normalised response,MFM-223 [17],99.9%
same,normalised response,BT-474 [18],87.4%
same,normalised response,BT-549 [19],89.5%
same,normalised response,CAL-120 [20],108%
same,normalised response,CAL-148 [21],116%
same,normalised response,CAL-51 [22],76.5%
same,normalised response,CAL-85-1 [23],85.7%
same,normalised response,DU-4475 [24],107%
same,normalised response,HCC1143 [25],91.3%
same,normalised response,HCC1599 [26],71.6%
same,normalised response,HCC1937 [27],83.6%
same,normalised response,HDQ-P1 [28],111%
same,normalised response,Hs578T [29],98.3%
same,normalised response,MCF-10A [30],128%
same,normalised response,MDA-MB-231 [31],94.8%
same,normalised response,MDA-MB-436 [32],94.3%
same,normalised response,MDA-MB-453 [33],73.4%
same,normalised response,MDA-MB-468 [34],86.8%
same,normalised response,MFM-223 [35],87.7%
same,normalised response,SK-BR-3,84.7%
CC(C)(C#N)c1cc(Cn2cncn2)cc(C(C)(C)C#N)c1 [Anastrozole] (10000 nM),normalised response,BT-474 [1],93%
same,normalised response,BT-549 [2],98.8%
same,normalised response,CAL-120 [3],99.1%
same,normalised response,CAL-148 [4],105%
same,normalised response,CAL-51 [5],100%
same,normalised response,CAL-85-1 [6],92.9%
same,normalised response,DU-4475 [7],95.3%
same,normalised response,HCC1599 [9],106%
same,normalised response,HCC1937 [36],69.8%
same,normalised response,HDQ-P1 [10],105%
same,normalised response,Hs578T [11],77.6%
same,normalised response,MCF-10A [12],105%
same,normalised response,MDA-MB-436 [14],107%
same,normalised response,MDA-MB-453 [15],88%
same,normalised response,MDA-MB-468 [16],116%
same,normalised response,MFM-223 [17],89.5%
same,normalised response,BT-474 [18],97.5%
same,normalised response,BT-549 [19],102%
same,normalised response,CAL-120 [20],98.3%
same,normalised response,CAL-148 [21],104%
same,normalised response,CAL-51 [22],98.6%
same,normalised response,CAL-85-1 [23],104%
same,normalised response,DU-4475 [24],103%
same,normalised response,HCC1143 [25],102%
same,normalised response,HCC1599 [26],99.8%
same,normalised response,HCC1937 [27],101%
same,normalised response,HDQ-P1 [28],100%
same,normalised response,Hs578T [29],100%
same,normalised response,MCF-10A [30],101%
same,normalised response,MDA-MB-231 [31],99.9%
same,normalised response,MDA-MB-436 [32],96%
same,normalised response,MDA-MB-453 [33],108%
same,normalised response,MDA-MB-468 [34],105%
same,normalised response,MFM-223 [35],103%
same,normalised response,SK-BR-3,108%
CCCCCCCCc1ccc(CCC(N)(CO)CO)cc1 [Fingolimod] (10000 nM),normalised response,BT-474 [1],0.12%
same,normalised response,BT-549 [2],57%
same,normalised response,CAL-120 [3],69.4%
same,normalised response,CAL-148 [4],67.4%
same,normalised response,CAL-51 [5],47.5%
same,normalised response,CAL-85-1 [6],-110%
same,normalised response,DU-4475 [7],100%
same,normalised response,HCC1143 [8],97%
same,normalised response,HCC1599 [9],91.4%
same,normalised response,HCC1937 [36],5.79%
same,normalised response,HDQ-P1 [10],53.7%
same,normalised response,Hs578T [11],37.8%
same,normalised response,MCF-10A [12],-90%
same,normalised response,MDA-MB-231 [13],-62.5%
same,normalised response,MDA-MB-436 [14],44.4%
same,normalised response,MDA-MB-453 [15],33.6%
same,normalised response,MDA-MB-468 [16],-186%
same,normalised response,MFM-223 [17],62.1%
same,normalised response,BT-474 [18],1.96%
same,normalised response,BT-549 [19],11.2%
same,normalised response,CAL-120 [20],78.1%
same,normalised response,CAL-148 [21],44.7%
same,normalised response,CAL-51 [22],47.6%
same,normalised response,CAL-85-1 [23],-0.17%
same,normalised response,DU-4475 [24],89.2%
same,normalised response,HCC1143 [25],75.8%
same,normalised response,HCC1599 [26],61.6%
same,normalised response,HCC1937 [27],5.87%
same,normalised response,HDQ-P1 [28],27.9%
same,normalised response,Hs578T [29],62.2%
same,normalised response,MCF-10A [30],-0.32%
same,normalised response,MDA-MB-231 [31],1.4%
same,normalised response,MDA-MB-436 [32],12.8%
same,normalised response,MDA-MB-453 [33],0.66%
same,normalised response,MDA-MB-468 [34],-0.02%
same,normalised response,MFM-223 [35],39.2%
same,normalised response,SK-BR-3,-0.19%
